{"source": "patent US20200172473A1", "about": "“DUAL MODULATORS OF FARNESOID X RECEPTOR AND SOLUBLE EPOXIDE HYDROLASE” (JOHANN WOLFGANG GOETHE-UNIVERSITÄT FRANKFURT AM MAIN, priority 2017, published 2020)", "key": {"FXR target genes": {"tested_on": "FXR target genes", "protocol": "Data was analyzed according to the 2^ΔΔCt method and all results were normalized to the values of the house-keeping gene glycerinaldehyde 3-phosphate dehydrogenase (GAPDH). Gene expression of vehicle treated control cells was defined as 100%.\nTwo micrograms of total RNA were extracted from HepG2 cells by the Total RNA Mini Kit (R6834-02, Omega Bio-Tek, Inc., Norcross, Ga., USA). […] FXR target gene expression was evaluated by quantitative real time PCR analysis with a StepOnePlus™ System (Life Technologies, Carlsbad, Calif., USA) using PowerSYBRGreen (Life Technologies; 12.5 μL per well). The primers are listed in the supporting information. Each sample was set up in duplicates and repeated in at least three independent experiments. The expression was quantified by the comparative ΔΔCt method and glycerinaldehyde 3-phosphate dehydrogenase (GAPDH) served as reference gene."}, "LXRα": {"target": "T1, LXRα (Homo sapiens, UniProt Q13133)", "T1 construct": "pFA-CMV-hLXRα-LBD; expressed in transfected cells; host or cells: HEK293T", "T1 sequence (Q13133 209-447 limits assumed)": "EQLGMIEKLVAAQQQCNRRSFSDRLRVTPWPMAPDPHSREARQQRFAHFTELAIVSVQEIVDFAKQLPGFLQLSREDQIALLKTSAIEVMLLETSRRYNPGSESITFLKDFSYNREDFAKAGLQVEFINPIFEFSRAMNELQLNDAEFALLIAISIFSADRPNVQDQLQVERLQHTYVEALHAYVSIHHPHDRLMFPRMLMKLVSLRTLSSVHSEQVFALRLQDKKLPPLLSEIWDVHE", "assay": "Gal4-hybrid reporter gene assay LXRα in HEK293T cells", "format": "cell-based", "settings": "10 μM; printed as both LXR subtypes", "description": "Hybrid reporter gene assays for PPARα/γ/δ, LXRα/β, RXRα/β/γ, RARα/β/γ, VDR and PXR Plasmids: The Gal4-fusion receptor plasmids pFA-CMV-hPPARα-LBD^52, pFA-CMV-hPPARγ-LBD^52, pFA-CMV-hPPARδ-LBD^52, pFA-CMV-hLXRα-LBD^32 and pFA-CMV-hLXRβ-LBD^32 have been reported previously. […] Frame and sequence of all fusion receptors were verified by sequencing. pFR-Luc (Stratagene) was used as reporter plasmid and pRL-SV40 (Promega) for normalization of transfection efficiency and cell growth.\nAssay procedure: HEK293T cells were grown in DMEM high glucose, supplemented with 10% FCS, sodium pyruvate (1 mM), penicillin (100 U/mL) and streptomycin (100 μg/mL) at 37° C. and 5% CO2. The day before transfection, HEK293T cells were seeded in 96-well plates (2.5·10^4 cells/well). Before transfection, medium was changed to Opti-MEM without supplements. Transient transfection was carried out using Lipofectamine LTX reagent (Invitrogen) according to the manufacturer's protocol with pFR-Luc (Stratagene), pRL-SV40 (Promega) and pFA-CMV-hRXRα-LBD. 5 h after transfection, medium was changed to Opti-MEM supplemented with penicillin (100 U/mL), streptomycin (100 μg/mL), now additionally containing 0.1% DMSO and the respective test compound or 0.1% DMSO alone as untreated control. […] Luminescence was measured with an Infinite M200 luminometer (Tecan Deutschland GmbH). […]"}, "[1]": {"tested_on": "PPARγ target genes CD36 and FAM3A", "assay": "PPARγ target gene mRNA quantification (qRT-PCR) in HepG2 cells", "format": "cell-based", "settings": "HepG2, 1 μM"}}, "note": "Like-named read-outs stand apart in the source and are kept apart here."}
{"smiles": "CC(C)(C)c1ccc(C(=O)NCc2ccc(NS(C)(=O)=O)cc2Cl)cc1", "note": "[compound 57, 4-(tert-Butyl)-N-(2-chloro-4-(methylsulfonamido)benzyl)benzamide]", "values": [{"measurement": "BSEP mRNA expression compared to vehicle set as 100%", "setting": "FXR target genes; HepG2, 0.1 μM, 8 or 16 h", "value": "216±18", "unit": "%"}, {"measurement": "FABP1 mRNA expression compared to vehicle set as 100%", "setting": "FXR target genes; HepG2, 0.1 μM, 8 or 16 h", "value": "183±34", "unit": "%"}, {"measurement": "FAS mRNA expression compared to vehicle set as 100%", "setting": "FXR target genes; HepG2, 0.1 μM, 8 or 16 h", "value": "22±8", "unit": "%"}, {"measurement": "FGF19 mRNA expression compared to vehicle set as 100%", "setting": "FXR target genes; HepG2, 0.1 μM, 8 or 16 h", "value": "309±101", "unit": "%"}, {"measurement": "PDK4 mRNA expression compared to vehicle set as 100%", "setting": "FXR target genes; HepG2, 0.1 μM, 8 or 16 h", "value": "255±54", "unit": "%"}, {"measurement": "PPARα mRNA expression compared to vehicle set as 100%", "setting": "FXR target genes; HepG2, 0.1 μM, 8 or 16 h", "value": "170±11", "unit": "%"}, {"measurement": "SHP mRNA expression compared to vehicle set as 100%", "setting": "FXR target genes; HepG2, 0.1 μM, 8 or 16 h", "value": "242±61", "unit": "%"}, {"measurement": "SREBP1c mRNA expression compared to vehicle set as 100%", "setting": "FXR target genes; HepG2, 0.1 μM, 8 or 16 h", "value": "49±17", "unit": "%"}, {"measurement": "BSEP mRNA expression compared to vehicle set as 100%", "setting": "FXR target genes; HepG2, 1 μM, 8 or 16 h", "value": "222±20", "unit": "%"}, {"measurement": "FABP1 mRNA expression compared to vehicle set as 100%", "setting": "FXR target genes; HepG2, 1 μM, 8 or 16 h", "value": "194±42", "unit": "%"}, {"measurement": "FGF19 mRNA expression compared to vehicle set as 100%", "setting": "FXR target genes; HepG2, 1 μM, 8 or 16 h", "value": "325±77", "unit": "%"}, {"measurement": "PDK4 mRNA expression compared to vehicle set as 100%", "setting": "FXR target genes; HepG2, 1 μM, 8 or 16 h", "value": "226±57", "unit": "%"}, {"measurement": "PPARα mRNA expression compared to vehicle set as 100%", "setting": "FXR target genes; HepG2, 1 μM, 8 or 16 h", "value": "211±10", "unit": "%"}, {"measurement": "SHP mRNA expression compared to vehicle set as 100%", "setting": "FXR target genes; HepG2, 1 μM, 8 or 16 h", "value": "317±78", "unit": "%"}, {"measurement": "amplitude of induction of SHP, PPARα, FGF19, PDK4 and FABP1 relative to CDCA (1b)", "setting": "FXR target genes; HepG2, % of CDCA (1b) at 50 μM", "value": "50-80%"}, {"measurement": "activity on LXRα", "setting": "LXRα", "value": "inactive"}, {"measurement": "CD36 mRNA expression compared to vehicle set as 100%", "setting": "[1]", "value": "119±33", "unit": "%"}, {"measurement": "FAM3A mRNA expression compared to vehicle set as 100%", "setting": "[1]", "value": "112±12", "unit": "%"}]}
